# Patent US12275734B1, “Pleuromutilin onium salt derivative containing a 3H-imidazo[4,5-c]pyridine side chain, and a preparation method and application thereof” (SHAANXI UNIVERSITY OF SCIENCE AND TECHNOLOGY, priority 2024, dated 2025)
# Assays:
# [1] = test system: HEK293 Cells; assay: Cytotoxicity, Cell Counting Kit-8; type: cell-based; conditions: human, 24 h
# Protocol: (§1) Cell Counting Kit-8 was used to evaluate the cytotoxicity of the compounds.
# (§2) (4) Cell culture: HepG2, HEK293 and A549 cells were evenly dispersed in culture medium, seeded into 96-well plates, and cultured under appropriate environmental conditions to keep the cells completely attached to the well walls.
# (§3) (5) Compound treatment: Add different concentrations of compounds I-8 and I-9 to each well (the concentrations are 0.78, 1.56, 3.13, 6.25, 12.5, 25, 50 and 100 μM, respectively, and perform 6 parallel experiments). Set up a blank control group and a normal control group. After incubation for 24 hours, observe the cell condition, which observed under a microscope.
# (§4) (6) CCK-8 solution treatment: Add CCK-8 solution to each well and incubate for 4 hours to allow it to react with the cells.
# (§5) (7) Absorbance determination: Use a full-wavelength scanning multifunctional reader, place the 96-well plate in the instrument, oscillate to mix to make the color evenly distributed, and measure the absorbance value at 490 nm.
# (§6) (8) Data analysis: Based on the measured absorbance values, the cell survival rate at different concentrations can be calculated. The median cytotoxic concentration was used to evaluate the cytotoxicity of the compound to A549, HEK293 and HepG2 cells.
# [2] = test system: HepG2 Cells; assay: Cytotoxicity, Cell Counting Kit-8; type: cell-based; conditions: human, 24 h
# Protocol: as §1, §2, §3, §4, §5, §6
# [3] = test system: A549 Cells; assay: Cytotoxicity, Cell Counting Kit-8; type: cell-based; conditions: human, 24 h
# Protocol: as §1, §2, §3, §4, §5, §6
# [4] = test system: Staphylococcus aureus (MRSA, ATCC 33591); assay: Mouse MRSA systemic infection model, H&E tissue sections; type: in vivo; conditions: MRSA-infected mice
# Protocol: (§7) Establishment of a mouse model of MRSA systemic infection
# (§8) (2) Pretreatment: All mice received cyclophosphamide treatment, with the first intraperitoneal injection of 150 mg/kg cyclophosphamide 4 days before infection and the second intraperitoneal injection of 100 mg/kg cyclophosphamide 1 day before infection.
# (4) Infection process: Mice were anesthetized with isoflurane and infected by intraperitoneal injection of Staphylococcus aureus (MRSA, ATCC 33591) at a concentration of 10^7 CFU/mL. […]
# (2) Processing: • (a) Time point: At the first hour after infection, mice in the experimental group received intraperitoneal injection of 0.5 mL of compounds of different concentrations, while mice in the control group received the same volume of solvent. • (b) Treatment time: […]
# Part II: The samples were fixed with 10% formalin buffer, then embedded in paraffin and sectioned. The sections were stained with hematoxylin and eosin (H&E) and then examined under an optical microscope.
# [5] = test system: S. aureus ATCC 29213; assay: MIC, broth microdilution; type: cell-based; conditions: Staphylococcus aureus, ATCC29213, read-out: Minimum inhibitory concentration S.a.^d
# Protocol: (§9) The minimum inhibitory concentration of 3H-imidazo[4,5-C]pyridine pleuromutilin onium salt derivatives against the tested pathogenic microorganisms were determined by broth microdilution method, with valnemulin and retapamulin as positive controls.
# (§10) The experimental strains included resistant Gram-positive bacteria: Methicillin-resistant S. aureus ATCC 33591; Methicillin-resistant S. aureus ATCC 43300; S. aureus ATCC 29213; Methicillin-resistant S. epidermidis ATCC 51625. Resistant Gram-negative bacteria: A. baumannii ATCC 19606; S. enterica ATCC14028; E. coli ATCC 25922; E. coli CMCC 44103. 9 clinically isolated resistant strains: MRSA-171; MRSA-575; MRSA-206; MRSA-222; MRSA-596; VRE-80; MDR-PA-126; MDR-KP-893; CR-AB-882.
# (§11) (1) Preparation of MHB medium: Weigh 18.0 g of MHB medium pre-made powder, add it to 1 L of distilled water, heat and boil until completely dissolved, divide it into conical bottles, sterilize it by high pressure at 121° C. for 15 minutes, and set aside.
# (§12) (2) Cultivate the experimental strain to the logarithmic growth phase: Under sterile conditions, inoculate the experimental strain into fresh MHB medium and culture it in a 37° C. constant temperature and humidity incubator for 16-24 hours. Adjust the bacterial solution concentration to 1.5×10^8 CFU/mL and then dilute it 200 times for later use.
# (§13) (3) Preparation of storage solution: Weigh the sample to be tested, dissolve it in 1% DMSO solution, and prepare a storage solution with a concentration of 2560 μg/mL; weigh the positive control, dissolve it in sterile distilled water, and prepare a storage solution with a concentration of 2560 μg/mL.
# (§14) (4) Preparation of bacterial suspension: Under sterile conditions, the experimental strain cultured to the logarithmic growth phase was calibrated to a 0.5 McFarland unit turbidity standard using MHB medium and then diluted at a ratio of 1:200 to prepare a bacterial suspension with a concentration of 5×10^5 CFU/mL for later use.
# (§15) (5) Determination of MIC by two-fold microdilution method: Take a sterile 96-well plate, add 10 μL of the test compound at a concentration of 2560 μg/mL, and perform serial dilutions by the two-fold dilution method. At the same time, set up a negative control group without drug. Then add 190 μL of diluted bacterial solution to each well, so that the final bacterial solution concentration in each well is 5×10^5 CFU/mL, and incubate in a 37° C. constant temperature and humidity chamber for 24 hours.
# [6] = test system: Methicillin-resistant S. aureus ATCC 43300; assay: MIC, broth microdilution; type: cell-based; conditions: Staphylococcus aureus, ATCC 43300 / MRSA, read-out: Minimum inhibitory concentration MRSA^c
# Protocol: as §9, §10, §11, §12, §13, §14, §15
# [7] = test system: Methicillin-resistant S. aureus ATCC 33591; assay: MIC, broth microdilution; type: cell-based; conditions: Staphylococcus aureus, ATCC 33591 / MRSA, read-out: Minimum inhibitory concentration MRSA^b
# Protocol: as §9, §10, §11, §12, §13, §14, §15
# [8] = test system: A. baumannii ATCC 19606; assay: MIC, broth microdilution; type: cell-based; conditions: Acinetobacter baumannii, ATCC19606, read-out: Minimum inhibitory concentration A.b.^f
# Protocol: as §9, §10, §11, §12, §13, §14, §15
# [9] = test system: E. coli ATCC 25922; assay: MIC, broth microdilution; type: cell-based; conditions: Escherichia coli, ATCC25922, read-out: Minimum inhibitory concentration E.c.^h
# Protocol: as §9, §10, §11, §12, §13, §14, §15
# [10] = test system: S. enterica ATCC14028; assay: MIC, broth microdilution; type: cell-based; conditions: Salmonella enterica, ATCC14028, read-out: Minimum inhibitory concentration S.e.^g
# Protocol: as §9, §10, §11, §12, §13, §14, §15
# [11] = test system: Methicillin-resistant S. epidermidis ATCC 51625; assay: MIC, broth microdilution; type: cell-based; conditions: Staphylococcus epidermidis, ATCC 51625 / MRSE, read-out: Minimum inhibitory concentration MRSE^e
# Protocol: as §9, §10, §11, §12, §13, §14, §15
# [12] = test system: E.coli CMCC 44103; assay: MIC, broth microdilution; type: cell-based; conditions: Escherichia coli, CMCC44103, read-out: Minimum inhibitory concentration E.c.^i
# Protocol: as §9, §10, §11, §12, §13, §14, §15
# [13] = test system: Staphylococcus aureus (MRSA, ATCC 33591); assay: Mouse MRSA systemic infection model, survival rate; type: in vivo; conditions: MRSA-infected mice, 5, 10, 20 mg/kg single intraperitoneal injection 1 hour after infection, 7-day survival
# Protocol: as §7
# (1) Solution preparation and bacterial activation: Reference Example 15.
# as §8
# (3) Control group treatment: Mice in the blank control group received intraperitoneal injection of 0.9% saline.
# (4) Infection process: Mice were anesthetized with isoflurane and infected by intraperitoneal injection of Staphylococcus aureus (MRSA, ATCC 33591) at a concentration of 10^7 CFU/mL.
# (1) Experimental groups: The doses of compound i and valnemulin were 5, 10, and 20 mg/kg, respectively (the solvent was dimethyl sulfoxide: Tween-80: sterile water=1:0.5:9.5);
# A model control group (administered with a solvent after infection with bacteria) and a blank control group (administered with a solvent only without infection with bacteria) were set up, with 10 mice in each group, half of which were male and half were female.
# (2) Time point: Intraperitoneal injection was performed in the experimental group mice at 1 hour after infection.
# (3) Therapeutic dose: The mice in the experimental groups received intraperitoneal injection of 0.5 mL of compound i and valnemulin at different concentrations. […]
# [14] = 5 mg/kg compound i, intraperitoneal
smiles,measurement,setting,value
"C=C[C@]1(C)C[C@@H](OC(=O)CSC(C)(C)CNC(=O)[C@H](N)C(C)C)[C@]2(C)[C@H](C)CC[C@]3(CCC(=O)[C@H]32)[C@@H](C)[C@@H]1O [Valnemulin, reference compound]",CC50,[1],65.4 µM
same,CC50,[2],77.3 µM
same,CC50,[3],53.7 µM
same,kidney H&E histology,[4]; [14],inflammatory cell infiltration was still observed
same,liver H&E histology,[4]; [14],still had inflammatory cell infiltration
same,lung H&E histology,[4]; [14],"alleviated, but they still did not return to normal"
same,spleen H&E histology,"[4]; 5 mg/kg, after 7 days of treatment",immune response was weakened
same,MIC,[5],4 µg/mL
same,MIC,[6],8 µg/mL
same,MIC,[7],64 µg/mL
same,MIC,[8],2 µg/mL
same,MIC,[9],16 µg/mL
same,MIC,[10],64 µg/mL
same,MIC,[11],64 µg/mL
same,MIC,[12],64 µg/mL
same,survival rate of mice,[13],improved
